Reference: US20100015576A1, “METHOD AND APPARATUS FOR DIAGNOSTIC AND TREATMENT USING HARD TISSUE OR MATERIAL MICROPERFORATION” (RejuveDent LLC, priority 2007, published 2010)

How the values were obtained:
[1] = in 14 hours; 33% hydrogen peroxide on micro-perforations
Protocol: One freshly extracted lower human incisor was used in the experiment. Immediately after extraction, the tooth was stored in a 0.1% w/w thymol solution at a temperature of +4-6° C. for 3 weeks.

[2] = In vivo whitening of teeth through laser microperforations
[3] = value used as input for the model calculation, cited from earlier work; for diffusion coefficient, peritubular: peritubular dentine; for diffusion coefficient, tubular: tubular dentine

Compound | brown discoloration of the root surface [1] | whitening effect (VITA scale) ([2]; Patient 1, 5 days after the procedure, peroxide 105 min at 37° C., 4 laser holes) | whitening effect (VITA scale) ([2]; Patient 1, 7 days after the procedure, peroxide 105 min at 37° C., 4 laser holes) | whitening effect (VITA scale) ([2]; Patients 2 and 3, 1 day after the procedure, peroxide 70 min / 45 min at 37° C.) | adverse effects on the oral mucosa ([2]; three patients) | pulp vitality (follow-up histopathology) ([2]; treated teeth, after extraction) | diffusion coefficient in intertubular dentine [3] | diffusion coefficient, peritubular [3] | diffusion coefficient, tubular [3]
OO [hydrogen peroxide] | completely bleached | one shade | one more shade | two shades (A3 to A1) | didn't observe any adverse effects | confirmed the vitality of the pulp | 3.6×10^−7 cm^2/sec | 3.6×10^−8 cm^2/sec | 3.6×10^−6 cm^2/sec
O [water] | – | – | – | – | – | – | 1.74×10^−6 cm^2/sec | 1.74×10^−7 cm^2/sec | 1.74×10^−5 cm^2/sec
